In patent publication US5645852A, “Butyric ester cyto-differtiating agents” (Sloan-Kettering Institute for Cancer Research, priority 1995, dated 1997):

Assays:
HL-60 = settings: in vitro; cited from earlier work
[1] = system: aberrant blood cells of thalassemia; settings: in vitro; cited from earlier work
HT-29 = settings: in vitro; cited from earlier work
[2] = system: aberrant blood cells of sickle cell anemia; settings: in vitro; cited from earlier work
[3] = continuous intravenous infusions, 500 mg/kg/day or higher, several days; cited from earlier work
[4] = system: 1,2-dimethylhydraxine-induced rat intestine neoplasia; settings: equivalent intake to tributyrin at 5% of feed; cited from earlier work
thalassemia = settings: continuous intravenous infusions, 500 mg/kg/day or higher, several days; cited from earlier work
[5] = system: cancer or transformed cells lines; settings: combinations of sodium butyrate and active Vitamin D forms; cited from earlier work
leukemia [6] = settings: intravenous infusions 500 mg/kg body weight per day for several days, child with leukemia; cited from earlier work
sickle cell = settings: continuous intravenous infusions, 500 mg/kg/day or higher, several days; cited from earlier work
[7] = plasma, humans and rabbits; cited from earlier work
leukemia [8] = settings: intravenous infusion, 500 mg/kg per day; cited from earlier work
[9] = intravenous infusion, 500 mg/kg per day; cited from earlier work
[10] = design: species or system male Sprague Dawley rats; settings: rat, in vivo
Description: Three male Sprague Dawley rats (Harlan Sprague Dawley, Houston, Tex.) weighing approximately 306 g were fasted overnight and gavaged with 1 gm of tributyrin (Sigma catalog #T-5142, 99% pure, 302.4M) directly into the stomach. A fourth rat-was not gavaged. Rats were sacrificed at time zero (without gavage) or 0.5, 2 and 4 hours post gavage. At time of sacrifice, each rat was anesthetized with a mixture of ketamine (87 mg/kg) and rompun (13 mg/kg). A cardiac puncture was performed and approximately 2 mls of blood was withdrawn into a heparinized vacutainer tube. Blood was centrifuged at 2000×g for 7 minutes and plasma was withdrawn and stored frozen until analysis. At the time of analysis, plasma concentration was determined by the method of Remsey and Demigne (1974) using chromatographic methods as described by Boffa et al. (1992).
A single oral dose bolus of 1 gm of tributyrin was administered to rats, and the plasma levels of free butyrate measured over 4 hours.

[11] = system: chemically induced colon cancer; settings: 5% of the feed, mice; cited from earlier work

In the case of `CCCC(=O)O` [butyrate, butyric acid], the “concentration at which butyrate has differentiation action” value (HL-60) is given as 0.3 to 5 mM, the “concentration giving desirable changes of aberrant blood cells” value [1] is given as “about 0.05 mM” and the “concentration at which butyrate has differentiation action” value (HT-29) is given as 0.3 to 5 mM. The “concentration giving desirable changes of aberrant blood cells” value [2] was “about 0.05 mM”.

In the case of `CCCC(=O)[O-].[Na+]` [sodium butyrate], the metabolism of butyrate [3] is listed as “apparently rapidly metabolized”, the “promoting or cancer increasing effect” value [4] is listed as “promoting or cancer increasing effect” and the “success in treating thalassemia patients” value (thalassemia) is listed as “success”. For the same compound, the “effect of combination with active Vitamin D forms on differentiation” value [5] was “additive or synergistic effects”, the remission (leukemia [6]) was “short-lived remission” and the “success in treating sickle cell patients” value (sickle cell) was “success”. The half-life [7] was “about 6 minutes”, the clinical response (leukemia [8]) was “no clinical response” and the metabolic half-life [9] was “about 6 minutes”.

For `CCCC(=O)OCC(COC(=O)CCC)OC(=O)CCC` [tributyrin, glyceryl tributyrate], the absorption of butyrate [10] was “very rapidly absorbed”, the “return of plasma butyrate to baseline” value [10] was “almost back to baseline at 4 hours” and the half-life of butyrate ([10]; po) was “about 40 minutes”. For the same compound, the “peak level of butyrates” value ([10]; po) was 0.35 mM, the “time over 0.10 mM butyrate” value ([10]; po) was “about 2 hours” and the “prevention of chemically induced colon cancer” value [11] was “ineffective”. The “promoting or cancer increasing effect” value [11] was “did not produce the promoting or cancer increasing effect”.
